{"source": "patent US20100226900A1", "about": "“PREVENTION AND TREATMENT OF OSTEOCHONDROSIS IN ANIMALS AND HUMANS” (U.S. Borax Inc., priority 2005, published 2010)", "key": {"[1]": {"tested_on": "sows and piglets", "format": "in vivo", "procedure": "Boron was added to the diet of sows at 1 mg/kg body weight as boric acid. […] Among a group of 95 piglets the birth to weaning mortality was 2 piglets. The usual mortality for this farm was about 5 to 7%. These piglets remained on boron 50 ppm plus ascorbate 125 ppm. One pig was euthanized and examined at a weight of about 85 pounds. […] All bones of the appendicular skeleton were sectioned on the band saw."}, "[2]": {"tested_on": "pigs", "settings": "about 100 pigs, 50 ppm boron as boric acid", "description": "An Iowa farm treated a group of about 100 pigs with 50 ppm boron as boric acid."}, "[3]": {"tested_on": "growing swine (osteochondrosis)", "test": "Boron supplementation and OC-associated lameness in growing swine (Example 1)", "format": "in vivo, pig", "procedure": "The basal diet consisted of commercial corn-soy diet containing 10 ppm boron.\nTest diet group B was fed a basal diet plus 25 mg/kg boron as sodium borate decahydrate (borax). Test diet group A was fed a basal diet plus 25 mg/kg boron as sodium borate decahydrate (borax) and 250 mg/kg ascorbic acid.\nPigs were weighed at the beginning of the study, 4 weeks later and every 3 weeks until the end of the study. Animals were scored for soundness on a 5-point scale at each weighing. (Five-point scale: 1=no soundness defects; 2=minor soundness issues but still sound enough for retention as breeding animal; 3=not sound enough for retention for breeding but still marketable; 4=unsound, likely to be rejected at slaughter; 5=severely lame, requiring euthanasia for humane reasons.) Grading was done by the caretaker and the investigator at all weighing times. An experienced independent treatment-blind rater also evaluated the soundness of each animal and the ratings he provided were compared with the ratings of the caretaker and investigator by use of Cohen's Kappa test.\nThe animals were housed in a modern curtain sided barn with deep straw bedding, with ad libitum access to feed and water. Waterers and feeders were on a concrete pad but the remainder of the flooring was deep straw over a ground limestone and sand base. Floor space allowances exceeded the recommendations of the Guide for the Care and Use of Agricultural Animals in Agricultural Research and Teaching, First Revised Edition, 1999. Federation of Animal Science Societies. Savoy, Ill.\nThe basal diet (no boron supplemented) was analysed and found to contain boron at the rate of 10 ppm which is typical for a corn-soybean meal based diet.\nAt the end of the study the pigs were transported to a laboratory where they were euthanized and necropsied. Six pigs in each of group B and group A were put on the control diet for 7 days at the end of the study.\nAt necropsy, samples of liver, heart, kidney, fat, skeletal muscle, proximal tibia, blood, and the rostral snout were retained and frozen at −40° C. prior to chemical analysis. All joints of the axial skeleton were evaluated for the presence of gross lesions of osteochondrosis and graded on a 5 point scale. (5-point scale: 1=no gross abnormalities; 2=minor imperfections in articular conformation or articular reddening present but no cartilage erosions; 3=cartilage intact but surface irregularities of the cartilage are present; 4=fissuring or erosion of articular cartilage is obvious; 5=full thickness cartilage lesions or cartilage flaps, osteochondritis dissecans obviously present).\nThe proximal femur (femoral head) and articular surfaces and growth plates associated with the stifle, hock, shoulder, elbow and carpus were sectioned with a band saw and approx. 0.5 to 1.0 cm sections fixed in formalin. Bone sections were decalcified with formic acid/sodium citrate, embedded in paraffin and sectioned at 5 microns. Sections were deparaffinized according to standard procedures. Two sections were made from each joint and growth plate and stained with either hematoxylin/eosin (H&E) or with toluidine blue (pH 4)/fast green for evaluation of the articular cartilage, subchondral bone and growth plate.\nMean joint lesion scores, growth rate and soundness scores by treatment and by factors boron and ascorbate were compared using an analysis of variance and t-test as appropriate. Soundness scores were dichotomised into binary categorical variables for lameness (soundness score>2) and for absence of defects (soundness<2), and the binary variables analysed by chi-square and logistic regression.\nTissue specimens stained with H&E were examined microscopically for the presence of lesions of osteochondrosis. Toluidine Blue staining allowed assessment of retention or loss of proteoglycan from the extracellular matrix (ECM) of the cartilage. Each tissue section was scored by a treatment-blind board-certified pathologist. […]"}, "[4]": {"tested_on": "sulfated glycosaminoglycan (sGAG) of cartilage", "test": "Glycosaminoglycan study: sGAG in articular cartilage plugs of fed pigs (Example 2)", "format": "in vivo, pig", "settings": "pigs fed 50 ppm boron; hock and elbow joints; unsupplemented 5045 ng/g; p<0.01", "procedure": "Hock joints and elbow joints were obtained at necropsy from pigs in two feeding groups: one group having been fed a commercial ration supplemented with 50 mg B/kg feed and the other being fed only the standard commercial pig ration.\nCartilage plugs were harvested from the articular surfaces of 40 hock and elbow joints using a #5 (10.5 mm) cork borer. The samples were papain digested and analyzed for concentration of sulfated glycosaminoglycan (sGAG) using a spectrophotometric microplate analysis procedure adapted from Farndale, et al (1986), using a chondrotin sulfate standard. This method measures total sulfated glycosaminoglycan, most of which is chondrotin sulfate and keratan sulfate components of aggrecan. Aggrecan is the large aggregating proteoglycan of cartilage responsible for creating and maintaining the osmotic pressure of cartilage. Quanititation of sGAG concentration thus provides a measure of the weight-bearing and anti-friction properties of cartilage and is a measure of cartilage quality and durability."}, "[5]": {"tested_on": "sows and their litters", "test": "Sow and litter trial in a commercial swine operation during a PRRSV outbreak (Example 3)", "format": "in vivo, pig", "settings": "sows given oral 1 mg boron per pound BW per day", "procedure": "To test the effect of boron on sows and their litters, a trial was established in a large commercial swine operation during an outbreak of porcine viral reproductive and respiratory disease (PRRSV). Boron was administered orally to a group of 51 sows individually housed in crates at the rate of 1 mg boron per pound BW per day beginning 1 week prior to farrowing and continuing until the piglets were weaned at 14 days of age. […] Boron treatment was supplied as a single daily dosing and was discontinued at weaning. All sows were fed a standard commercial sow diet."}, "[6]": {"tested_on": "crossbred pigs", "test": "28-day feeding trial: phosphorus digestibility and excretion, feed conversion (Example 4)", "format": "in vivo, pig", "procedure": "Pigs were randomly allocated to 24 pens of 6 pigs per pen in a thermoneutral controlled environment barn with steel grid flooring. Each pen was equipped with a single-hole feeder. Water was available free-choice from a nipple drinker. […] Feces were collected on the last 3 days of the study from each pen and a pooled aliquot was dried and submitted for chemical analysis. Yttrium oxide was added to the diet at 0.05% and served as a marker for phosphorus digestibility. Pig growth and feed consumption was measured at the end of the study with the pen as the experimental unit. Data was analyzed for effects of boron and calcium by univariate and multivariate analysis of variance and t-tests."}, "[7]": {"tested_on": "pigs (boron crosslinks, osteochondrosis)", "protocol": "The pigs were evaluated for lameness daily and euthanatized on day 13 and the joints and other organs were examined."}, "[8]": {"tested_on": "gestating and lactating sows and their piglets", "test": "Reproductive effects in sows: observation and preliminary pilot study (Example 3)", "protocol": "Sows were fed a standard corn-soy diet. Half of the sows received an oral administration of a boron supplement to provide 1 mg boron per kg body weight."}, "[9]": {"settings": "boron 50 ppm in feed, 3-NPB none, 5 pigs"}, "[10]": {"settings": "sows fed 50 ppm supplemental boron, late gestation and early lactation"}}}
{"smiles": "OB(O)O", "note": "[boric acid]", "values": [{"measurement": "Birth to weaning mortality", "setting": "[1]; among a group of 95 piglets, usual mortality of the farm about 5 to 7%", "value": 2, "unit": "piglets"}, {"measurement": "Outcome in three noticeably and seriously lame sows", "setting": "[1]; sows, boron 1 mg/kg body weight as boric acid in diet", "value": "became perfectly sound"}, {"measurement": "Growth rate", "setting": "[2]", "value": "excellent growth rate"}, {"measurement": "Lameness/unsoundness rate", "setting": "[2]; estimated previous rate about 25 to 30%", "value": "zero"}]}
{"smiles": "[B]", "note": "[boron]", "values": [{"measurement": "Joint health vs basal diet (FIG. 1)", "setting": "[3]; 25 mg/kg boron as borax vs basal diet", "value": "healthier joints"}, {"measurement": "Growth plate lesions associated with widening, share of tissues", "setting": "[3]; 25 ppm boron in feed (as borax), unsupplemented group 57%", "value": 19, "unit": "%"}, {"measurement": "Articular cartilage lesions (necrosis, hemorrhage, infarction, or streaks), share of tissues", "setting": "[3]; 25 ppm supplemental B in feed, unsupplemented pigs 21%", "value": 4, "unit": "%"}, {"measurement": "TBlue staining intensity of cartilage (semi-quantitative sGAG content)", "setting": "[3]; boron supplemented group vs unsupplemented", "value": "consistently higher"}, {"measurement": "Incidence of osteochondrosis-associated lameness", "setting": "[3]; growing swine, boron supplementation", "value": "effective in reduction"}, {"measurement": "Occurrence of osteochondrosis", "setting": "[3]; pigs, supplemental boron 25 ppm to 50 ppm (FIGS. 1, 3, 4)", "value": "significant reduction"}, {"measurement": "sGAG concentration in cartilage (dry matter basis)", "setting": "[4]", "value": 11050, "unit": "ng/g"}, {"measurement": "Effect on litter size at birth", "setting": "[5]", "value": "no effects"}, {"measurement": "Effect on piglet birth weight", "setting": "[5]", "value": "no effects"}, {"measurement": "Likelihood to conceive relative to control sows", "setting": "[5]; p=0.04", "value": 1.2, "unit": "times"}, {"measurement": "Return to estrus, average days quicker than control sows", "setting": "[5]; p=0.047", "value": 1.6, "unit": "days"}, {"measurement": "Phosphorus Digestibility (%)", "setting": "[6]; 50 ppm added B in feed, 28 days, no added B 33.4, p 0.017", "value": 36.3, "unit": "%"}, {"measurement": "Phosphorus excretion in Feces (g/Kg gain)", "setting": "[6]; 50 ppm added B in feed, 28 days, no added B 88.1, p 0.028", "value": 74.6, "unit": "g/Kg gain"}, {"measurement": "Reduction of phosphorus excretion per unit of production", "setting": "[6]; boron added to the diet vs no added boron", "value": 15, "unit": "%"}, {"measurement": "Joint findings at necropsy", "setting": "[1]; one pig of about 85 pounds kept on boron 50 ppm plus ascorbate 125 ppm", "value": "No abnormalities were observed"}, {"measurement": "Clinical Lameness Score: count of pigs Normal", "setting": "[7]; [9]", "value": 5}, {"measurement": "Clinical Lameness Score: count of pigs with Visible Lameness", "setting": "[7]; [9]", "value": 0}, {"measurement": "Prevalence and severity of osteochondrosis lesions in shoulder, stifle, hock and elbow joints", "setting": "[7]; supplemental boron, no 3-NPB", "value": "lowest prevalence of lesions and the lowest severity"}, {"measurement": "Piglet weight at 12 days of age", "setting": "[8]; pilot study, sows given oral 1 mg boron per kg body weight, non-supplemented 8.0 pounds", "value": 8.5, "unit": "pounds"}, {"measurement": "Pre-weaning mortality", "setting": "[8]; pilot study, sows given oral 1 mg boron per kg body weight, non-supplemented 23%, preliminary, first 600 pigs", "value": 16, "unit": "%"}, {"measurement": "Piglet quality (uniformity, growth, general thrift)", "setting": "[8]; [10]", "value": "improved"}, {"measurement": "Pre-weaning piglet mortality (observation)", "setting": "[8]; [10]", "value": "reduced"}]}
